Assay results from the supplement of paper PMC11208160.

Assay: recombinant barcode read abundance after kanamycin selection (control-corrected) (log10(CPM+1)); higher = more efficient recombination; sequences stand for … in AGTGCAGAGAAAATCGGCCAGTTTTCTCTGCCTGCAGTCCGCATGCCGT…ATTTATGCAGCGGACTGCCTTTCTCCCAAAGTGATAAACCGGACAGTATCATGGACCGGTTTTCCCGGTAATCCGTATTTGCAAGGTTGGTTTCACT; site = the 11-nt target
Summary of the method: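 Recombination efficiency was calculated from barcode counts at recombinant junctions, normalized to counts per million, averaged and corrected by the control. Each value is given as log10(CPM+1). The constructs were Gibson-cloned oligos (promoter, target, barcode, J23119-driven first 104 bridge RNA bases) in a vector with the remaining 73 bp and a T7-inducible recombinase, co-electroporated into E. coli with a donor plasmid and plated in duplicate on chloramphenicol/ampicillin LB agar (control) or chloramphenicol/ampicillin/kanamycin with 0.1 mM IPTG.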

Sequence	recombinant barcode read abundance (log10)
TGATACCCTTGGGTTCTAACCTGTTGCGTAA [TGATACCCTAC_LTGcore_CT_RTGcore_TT] (site TGATACCCTAC) (LTG core: CT, RTG core: TT)	0.882
TGATACCCTTGGGTTCTAACCTGTTGCGTAT [TGATACCCTAC_LTGcore_CT_RTGcore_AT] (site TGATACCCTAC) (LTG core: CT, RTG core: AT)	0.624
TGATACCTATGGGTTCTAACCTGTTGCGTAG [TGATACCCTAC_LTGcore_TA_RTGcore_CT] (site TGATACCCTAC) (LTG core: TA, RTG core: CT)	0.0864
TGATACCTATGGGTTCTAACCTGTTGCGTTA [TGATACCCTAC_LTGcore_TA_RTGcore_TA] (site TGATACCCTAC) (LTG core: TA, RTG core: TA)	0.0463
TGATACCTCTGGGTTCTAACCTGTTGCGTGA [TGATACCCTAC_LTGcore_TC_RTGcore_TC] (site TGATACCCTAC) (LTG core: TC, RTG core: TC)	0.0566
TGATACCTTTGGGTTCTAACCTGTTGCGTAA [TGATACCCTAC_LTGcore_TT_RTGcore_TT] (site TGATACCCTAC) (LTG core: TT, RTG core: TT)	0.0482
TGTATTCAATGGGTTCTAACCTGTTGCCTAG [TGTATTCCTAG_LTGcore_AA_RTGcore_CT] (site TGTATTCCTAG) (LTG core: AA, RTG core: CT)	0.0633
TGTATTCAATGGGTTCTAACCTGTTGCCTTT [TGTATTCCTAG_LTGcore_AA_RTGcore_AA] (site TGTATTCCTAG) (LTG core: AA, RTG core: AA)	0.0627
TGTATTCCCTGGGTTCTAACCTGTTGCCTAG [TGTATTCCTAG_LTGcore_CC_RTGcore_CT] (site TGTATTCCTAG) (LTG core: CC, RTG core: CT)	0.168
TGTATTCCTTGGGTTCTAACCTGTTGCCTCG [TGTATTCCTAG_LTGcore_CT_RTGcore_CG] (site TGTATTCCTAG) (LTG core: CT, RTG core: CG)	0.161
TGTATTCCTTGGGTTCTAACCTGTTGCCTGA [TGTATTCCTAG_LTGcore_CT_RTGcore_TC] (site TGTATTCCTAG) (LTG core: CT, RTG core: TC)	0.0266
TGTATTCCTTGGGTTCTAACCTGTTGCCTTC [TGTATTCCTAG_LTGcore_CT_RTGcore_GA] (site TGTATTCCTAG) (LTG core: CT, RTG core: GA)	0.0942
TGTATTCGCTGGGTTCTAACCTGTTGCCTGC [TGTATTCCTAG_LTGcore_GC_RTGcore_GC] (site TGTATTCCTAG) (LTG core: GC, RTG core: GC)	0.312
TGTATTCTGTGGGTTCTAACCTGTTGCCTCA [TGTATTCCTAG_LTGcore_TG_RTGcore_TG] (site TGTATTCCTAG) (LTG core: TG, RTG core: TG)	0.205
TTATAAAAGTGGGTTCTAACCTGTTGCCTAG [TTATAAACTAG_LTGcore_AG_RTGcore_CT] (site TTATAAACTAG) (LTG core: AG, RTG core: CT)	0.0357
TTATAAACATGGGTTCTAACCTGTTGCCTAG [TTATAAACTAG_LTGcore_CA_RTGcore_CT] (site TTATAAACTAG) (LTG core: CA, RTG core: CT)	0.314
TTATAAACGTGGGTTCTAACCTGTTGCCTAG [TTATAAACTAG_LTGcore_CG_RTGcore_CT] (site TTATAAACTAG) (LTG core: CG, RTG core: CT)	0.111
TTATAAACTTGGGTTCTAACCTGTTGCCTAA [TTATAAACTAG_LTGcore_CT_RTGcore_TT] (site TTATAAACTAG) (LTG core: CT, RTG core: TT)	0.0141
TTATAAAGATGGGTTCTAACCTGTTGCCTAG [TTATAAACTAG_LTGcore_GA_RTGcore_CT] (site TTATAAACTAG) (LTG core: GA, RTG core: CT)	0.0604
TTATAAAGTTGGGTTCTAACCTGTTGCCTAC [TTATAAACTAG_LTGcore_GT_RTGcore_GT] (site TTATAAACTAG) (LTG core: GT, RTG core: GT)	0.0636
TTATAAATGTGGGTTCTAACCTGTTGCCTCA [TTATAAACTAG_LTGcore_TG_RTGcore_TG] (site TTATAAACTAG) (LTG core: TG, RTG core: TG)	0.0981
